Article doi:10.1101/2024.01.22.576576v1, “Phenotypic screening of covalent compound libraries identifies chloromethyl ketone antibiotics and MiaA as a new target” (biorxiv, 2024)
Converted amounts (≈) assume the structure as drawn. Read-outs that look alike come from different tables or passages of the source.

Assays:
[1] = system: T1, S. flexneri M90T; experiment: microbe, parasite or virus in culture; parameters: species or system bacterial strain; broth microdilution MIC, OD600, lowest concentration without visible bacterial growth; settings: Shigella flexneri, read-out: MIC SF
T1 construct: M90T
Experimental: (§1) MIC measurement. The minimum inhibitory concentrations (MICs) of compounds were measured using the broth microdilution method.1 One stab using 10 µL tip from bacteria glycerol stock was inoculated into 5 mL of LB supplemented with selection antibiotics (Kanamycin for Keio collections and chloramphenicol for ASKA collections), and the culture was incubated at 37 °C with shaking overnight. […] The plate was incubated at 37 °C for 16 ~ 20 h with shaking at 80 rpm and the OD600 was measured using Cytation 5 plate reader (BioTek). MIC was determined as the lowest concentration for which no bacterial growth was observed. LB was used as the growth media for all the bacteria strains unless otherwise mentioned. For S. aureus and A. baumannii strains, tryptic soy broth (TSB, BD, DF0370-17-3) was used as the growth media instead of LB. For P. aeruginosa and K. pneumoniae strains, nutrient broth (NB, RPI, N15100) was used as growth media. All MIC measurements were performed in at least biological duplicates.

[2] = system: T2, S. aureus MSSA476; experiment: microbe, parasite or virus in culture; parameters: species or system bacterial strain; broth microdilution MIC, OD600, lowest concentration without visible bacterial growth; settings: Staphylococcus aureus, MSSA476, read-out: MIC SA
T2 construct: MSSA476
Experimental: as §1

[3] = system: T3, V. cholerae SAD30; experiment: microbe, parasite or virus in culture; parameters: species or system bacterial strain; broth microdilution MIC, OD600, lowest concentration without visible bacterial growth; settings: Vibrio cholerae, SAD30, read-out: MIC VC
T3 construct: SAD30
Experimental: as §1

[4] = system: T4, E. coli JPN15; experiment: microbe, parasite or virus in culture; parameters: species or system bacterial strain; broth microdilution MIC, OD600, lowest concentration without visible bacterial growth; settings: Escherichia coli, JPN15, read-out: MIC EC
T4 construct: JPN15 (EPEC)
Experimental: as §1

[5] = system: S. flexneri M90T; experiment: microbe, parasite or virus in culture; settings: Shigella flexneri, read-out: MIC SF
Experimental: as §1

[6] = molecular target: T5, Sf_MiaA (Shigella flexneri, UniProt P59197); experiment: in-gel fluorescence competition with 5-TMRIA; type: binding; settings: covalent; Cys273; 1 h preincubation
T5 construct: gene miaA; recombinant, purified from E. coli BL21; two cysteines in total; also native protein in live S. flexneri M90T (ABPP row)
T5 sequence (P59197 1-316): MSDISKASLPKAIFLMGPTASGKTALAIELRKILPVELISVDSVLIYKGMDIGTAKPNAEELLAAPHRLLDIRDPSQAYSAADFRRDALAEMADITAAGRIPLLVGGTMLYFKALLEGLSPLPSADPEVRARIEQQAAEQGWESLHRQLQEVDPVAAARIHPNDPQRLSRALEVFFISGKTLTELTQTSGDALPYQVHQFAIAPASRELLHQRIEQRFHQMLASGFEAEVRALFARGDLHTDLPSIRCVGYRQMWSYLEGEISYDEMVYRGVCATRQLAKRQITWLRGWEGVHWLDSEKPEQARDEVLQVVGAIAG

[7] = molecular target: T6, Sf_PdxY (Shigella flexneri, UniProt Q83KY1); experiment: in-gel fluorescence competition with 5-TMRIA; type: binding; settings: covalent; 1 h preincubation
T6 construct: gene pdxY; recombinant, purified from E. coli BL21; also native protein in live S. flexneri M90T (ABPP row)
T6 sequence (Q83KY1 1-287): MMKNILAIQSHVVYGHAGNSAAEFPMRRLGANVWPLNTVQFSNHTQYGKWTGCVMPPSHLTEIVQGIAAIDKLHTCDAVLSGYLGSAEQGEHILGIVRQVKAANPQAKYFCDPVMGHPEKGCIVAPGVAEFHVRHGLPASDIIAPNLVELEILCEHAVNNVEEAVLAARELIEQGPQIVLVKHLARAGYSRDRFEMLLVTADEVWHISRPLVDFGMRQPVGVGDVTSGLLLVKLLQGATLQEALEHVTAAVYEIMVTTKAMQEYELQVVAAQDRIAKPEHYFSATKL

[8] = molecular target: T5, Sf_MiaA; experiment: i6A-37 tRNA formation followed by LC-MS after preincubation; type: biochemical; settings: covalent; Cys273; tRNA-Trp 34-mer substrate
Experimental: i6A-37 tRNA formation followed by LC-MS after preincubation on Sf_MiaA | preincubation of 10-F05 with MiaA decreased the initial velocity of modified tRNA forming rate

[9] = molecular target: T7, Sa_FabH (Staphylococcus aureus, UniProt Q6GAU3); experiment: in-gel fluorescence competition with 5-TMRIA; type: binding; settings: covalent
T7 construct: gene fabH; purified protein
T7 sequence (Q6GAU3 1-313): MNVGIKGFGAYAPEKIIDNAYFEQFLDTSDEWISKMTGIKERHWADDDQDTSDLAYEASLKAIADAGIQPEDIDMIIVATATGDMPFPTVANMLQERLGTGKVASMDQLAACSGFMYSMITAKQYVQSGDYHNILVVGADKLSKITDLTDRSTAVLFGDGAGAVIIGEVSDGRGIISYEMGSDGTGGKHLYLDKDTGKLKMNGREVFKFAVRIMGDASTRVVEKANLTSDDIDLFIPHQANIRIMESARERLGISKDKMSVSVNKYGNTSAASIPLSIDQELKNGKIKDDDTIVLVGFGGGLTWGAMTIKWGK

[10] = system: T8, A. baumannii BAA-1790; experiment: microbe, parasite or virus in culture; parameters: species or system bacterial strain; broth microdilution MIC, OD600, lowest concentration without visible bacterial growth; settings: Acinetobacter baumannii, BAA1790, read-out: 10-F05 MIC µM
T8 construct: BAA-1790
Experimental: as §1

[11] = system: T9, E. cloacae 13047; experiment: microbe, parasite or virus in culture; parameters: species or system bacterial strain; broth microdilution MIC, OD600, lowest concentration without visible bacterial growth; settings: Enterobacter cloacae, 13047, read-out: 10-F05 MIC µM
T9 construct: 13047
Experimental: as §1

[12] = system: T10, E. coli (KPC+) BAA-2340; experiment: microbe, parasite or virus in culture; parameters: species or system bacterial strain; broth microdilution MIC, OD600, lowest concentration without visible bacterial growth; settings: Escherichia coli, BAA2340, read-out: 10-F05 MIC µM
T10 construct: BAA-2340 (KPC+)
Experimental: as §1

[13] = system: T11, K. pneumoniae 13883; experiment: microbe, parasite or virus in culture; parameters: species or system bacterial strain; broth microdilution MIC, OD600, lowest concentration without visible bacterial growth; settings: Klebsiella pneumoniae, 13883, read-out: 10-F05 MIC µM
T11 construct: 13883
Experimental: as §1

[14] = system: T12, P. aeruginosa BAA-2110; experiment: microbe, parasite or virus in culture; parameters: species or system bacterial strain; broth microdilution MIC, OD600, lowest concentration without visible bacterial growth; settings: Pseudomonas aeruginosa, BAA2110, read-out: 10-F05 MIC µM
T12 construct: BAA-2110
Experimental: as §1

[15] = system: T13, K. pneumoniae 700603; experiment: microbe, parasite or virus in culture; parameters: species or system bacterial strain; broth microdilution MIC, OD600, lowest concentration without visible bacterial growth; settings: Klebsiella pneumoniae, 700603, read-out: 10-F05 MIC µM
T13 construct: 700603
Experimental: as §1

[16] = molecular target: T14, Sf_FabH (Shigella flexneri, UniProt Q83RS8); experiment: in-gel fluorescence competition with 5-TMRIA; type: binding; settings: covalent; 1 h preincubation
T14 construct: gene fabH; recombinant, purified from E. coli BL21; also native protein in live S. flexneri M90T (ABPP rows)
T14 sequence (Q83RS8 1-317): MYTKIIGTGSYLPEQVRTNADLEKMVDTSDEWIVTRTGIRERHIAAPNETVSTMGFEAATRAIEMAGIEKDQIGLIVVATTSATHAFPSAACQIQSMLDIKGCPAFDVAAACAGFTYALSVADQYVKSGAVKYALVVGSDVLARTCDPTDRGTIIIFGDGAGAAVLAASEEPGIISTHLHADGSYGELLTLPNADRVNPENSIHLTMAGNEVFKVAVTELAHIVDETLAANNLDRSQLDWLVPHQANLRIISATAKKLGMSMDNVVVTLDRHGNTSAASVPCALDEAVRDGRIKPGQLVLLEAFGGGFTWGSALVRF

| SMILES | MIC [1] | MIC [2] | MIC [3] | MIC [4] | MIC [5] | also measured |
| --- | --- | --- | --- | --- | --- | --- |
| O=C(CCl)c1cn(-c2cccc(C(F)(F)F)c2)nn1 [10-C09] | 25 µM (≈ 7.24 µg/mL) | 25 µM (≈ 7.24 µg/mL) | 100 µM (≈ 29 µg/mL) | 100 µM (≈ 29 µg/mL) |  |  |
| CC(=O)c1cn(-c2ccc(F)cc2)nn1 [10-F05-N] |  | > 100 µM | > 100 µM | > 100 µM | > 100 µM |  |
| O=C(CCl)c1cn(-c2ccc(F)cc2)nn1 [10-F05] | 2.5 µM (≈ 0.599 µg/mL) | 10 µM (≈ 2.4 µg/mL) | 10 µM (≈ 2.4 µg/mL) | 25 µM (≈ 5.99 µg/mL) |  | in-gel fluorescence competition with 5-TMRIA [6]: indicating 10-F05 specifically reacts with MiaA Cys273; in-gel fluorescence competition with 5-TMRIA [7]: preincubation of 10-F05 decreased the 5-TMRIA labeling in a dose-dependent manner (Figure 5A); fold decrease in initial velocity [8]: 1.7 fold; in-gel fluorescence competition with 5-TMRIA [9]: 10-F05 was able to bind with S. aureus FabH (Sa_FabH, Figure 5C); MIC [10]: > 100 µM; MIC [11]: 50 µM (≈ 12 µg/mL); MIC [12]: 50 µM (≈ 12 µg/mL); MIC [13]: 50 µM (≈ 12 µg/mL); MIC [14]: > 100 µM; MIC [15]: > 100 µM; in-gel fluorescence competition with 5-TMRIA [16]: rapid covalent bond formation between 10-F05 and Sf_FabH (Figure 5B) |
| CC(=O)c1cnccc1F [10-I09-N] |  | > 100 µM | > 100 µM | > 100 µM | > 100 µM |  |
| CC(=O)c1ccccn1 [10-J03-N] |  | > 100 µM | > 100 µM | > 100 µM | > 100 µM |  |
| CC(=O)c1cn(-c2cccc(C)c2)nn1 [10-L07-N] |  | > 100 µM | > 100 µM | > 100 µM | > 100 µM |  |
| Cc1cccc(-n2cc(C(=O)CCl)nn2)c1 [10-L07] | 5 µM (≈ 1.18 µg/mL) | 10 µM (≈ 2.36 µg/mL) | 25 µM (≈ 5.89 µg/mL) | 50 µM (≈ 11.8 µg/mL) |  |  |
| Cn1cc(C(=O)CCl)nn1 [10-M19] | 50 µM (≈ 7.98 µg/mL) | 100 µM (≈ 16 µg/mL) | 50 µM (≈ 7.98 µg/mL) | 50 µM (≈ 7.98 µg/mL) |  |  |
